Where no end group is shown, it is not given here. [ ]: non-standard residue; d: D form.
Legend:
Herz antibody 3E7 = assay: staining of substrate-bound peptide array with FITC-labelled antibodies, fluorescence intensity; type: binding; details: for overall intensity ratios YGGFL:YpGFL:pGGFL:ppGFL: fluorescence intensity of all sites on the slide after staining with FITC-labelled Herz antibody 3E7, ratio relative to ppGFL = 1.0; for fluorescence intensity of peptide sites (FIG. 19): slide stained with FITC-labelled Herz antibody 3E7, result in words
Description: The system was used to synthesize four distinct peptides: YGGFL (SEQ ID NO:1), YpGFL (SEQ ID NO:2), pGGFL (SEQ ID NO:3), and ppGFL (SEQ ID NO:6) (the abbreviations are included in Stryer, Biochemistry, Third Ed. (1988), previously incorporated herein by reference; lower case letters indicate D-optical isomers and upper case letters indicate L-optical isomers). An entire glass substrate was derivatized with TBOC-protected aminopropyltriethoxysilane, deprotected with TFA, coated with FMOC-protected caproic acid (a linker), deprotected with piperidine, and coated with FMOC-protected Glycine-Phenylalanine-Leucine (GFL).
This FMOC-GFL-coated slide was sealed to the channel block, and all 10 grooves were deprotected with piperdine in DMF. After washing the grooves, FMOC Glycine (G) was injected in the odd grooves, and FMOC d-Proline (p) was injected in the even grooves. After a two-hour coupling time, using standard coupling chemistry, all grooves were washed with DMF. The grooves were vacuum dried, the block removed and rotated 90 degrees. After resealing, all grooves were deprotected with piperdine in DMF and washed. FMOC Tyrosine (Y) was injected in the odd grooves, and FMOC p in the even grooves. After coupling the grooves were washed and vacuum dried. Accordingly, 25 regions of each of the compounds YGGFL (SEQ ID NO:1), YpGFL (SEQ ID NO:2), pGGFL (SEQ ID NO:3), and ppGFL (SEQ ID NO:6) were synthesized on the substrate. The substrate was removed and stained with FITC-labelled antibodies (Herz antibody 3E7).

[1] = system: complementary base sequence 5′GCGTCGGC-F (SEQ ID NO:5); assay: Channel Matrix Hybridization Assay; type: binding; details: 10 nM target, 15° C., one hour; scanned in 6× SSPE buffer; result in words
Description: A center region of a two by three inch slide was derivatized with bis(2-Hydroxyethyl) aminopropyltriethoxy silane. Six nucleosides were then coupled to the entire reaction region using a synthesis process consisting of deprotection, coupling, and oxidation steps for each monomer applied. These first six nucleosides were coupled in a reaction region defined by a 0.84 inch diameter circular well in an aluminum template clamped to the two by three inch slide.
The seventh and eighth monomers were applied to the substrate by flowing monomer solutions through 100 micron channels in an etched silicon channel block (employed in Example C above). The seventh base was coupled along the long axis (vertical) of the two-inch by three-inch slide, and the eighth base perpendicular to the seventh, along the short axis (horizontal) of the slide. This defined an active matrix region of 1.28 by 1.28 cm having a density of 2,500 reaction regions per square centimeter.
The complete octamer synthesized at the channel intersections formed by the seventh and eighth coupling steps had the following sequence: […]
After completion of the synthesis process, cleavage of exocyclic amines was performed by immersion of the reaction region in concentrated ammonium hydroxide. […] Finally, the reaction region was then scanned using a laser fluorescence detection system while immersed in the buffer.

YpGFL (Y[dP]GFL; also: substrate-bound)
overall intensity ratios YGGFL:YpGFL:pGGFL:ppGFL (Herz antibody 3E7): 1.5

pGGFL ([dP]GGFL; also: substrate-bound)
overall intensity ratios YGGFL:YpGFL:pGGFL:ppGFL (Herz antibody 3E7): 1.1
fluorescence intensity of peptide sites (FIG. 19) (Herz antibody 3E7): near background levels

YGGFL
overall intensity ratios YGGFL:YpGFL:pGGFL:ppGFL (Herz antibody 3E7): 1.7
fluorescence intensity of peptide sites (FIG. 19) (Herz antibody 3E7): most intense

ppGFL ([dP][dP]GFL; also: substrate-bound)
overall intensity ratios YGGFL:YpGFL:pGGFL:ppGFL (Herz antibody 3E7): 1.0
fluorescence intensity of peptide sites (FIG. 19) (Herz antibody 3E7): near background levels

Substrate—(3′)CGCAGCCG(5′) [full octamer]
brightness (fluorescence) indicating hybridization with fluoresceinated target chain (FIG. 21) [1]: brightest regions

Source: patent publication US6943034B1, “Combinatorial strategies for polymer synthesis” (Affymetrix, Inc., priority 1991, dated 2005)
